What was measured:
Format in all cases: in vivo, rat
[1] = system: ionotropic glutamate receptor subunit GluN2A; assay: Western blot of GluN2A in hippocampus of GK rats; conditions: hippocampus of GK rats after long-term treatment; FIG. 11
Description: (§1) The tissue sampling, protein extraction and quantification, preparation of the denaturated protein samples, and protein gel electrophoresis were completed successively using the steps (I) to (IV) of the above example 2.
(§2) Then, the gel obtained from the electrophoresis was used for membrane transfer. Biomarkers GluN2A and GluN2B were transferred to a membrane using a wet transfer method. The membrane was assembled in the following order: negative electrode-sponge-filter paper-gel-PVDF membrane-filter paper-sponge-positive electrode. The membrane transfer was performed at a constant voltage of 100 V in an ice bath for 70 minutes.
(§3) After the membrane transfer was completed, the PVDF membranes were blocked with BSA or non-fat milk (GluN2A and GluN2B membranes were blocked with BSA, and GAPDH membrane was blocked with non-fat milk), respectively, at room temperature for 1 hour. […] The eluted PVDF membranes were scanned using an electrochemiluminescence (ECL) method with a contact-based non-destructive quantitative imaging instrument (E-blot) to give a western blot image.
(§4) Calculation of the relative expression level of a protein: The western blot images were quantified using an image processing software ImageJ, and the gray value of a target band was measured and used to characterize the protein expression level of the target band. […]

GK rats [2] = assay: Fasting blood glucose in GK rats under long-term treatment; conditions: 8 mg/kg by gavage twice daily from six weeks of age, tested at weeks 6, 8, 12, 16, 20, 29, 31, FIG. 1
Description: Goto-Kakizaki (GK) rats are a non-obese, spontaneously occurring type 2 diabetes rat model obtained through repeated inbreeding of Wistar rats with glucose tolerance at the upper limit over several generations. […] The hippocampus is a key functional brain region regulating learning and memory abilities. Due to the presence of progressive diabetes symptoms, typical neurodegenerative diseases, and memory deficits, GK rats can be used to evaluate the effects of a drug on preventing memory decline.
(§5) GK rats were randomly divided into the following treatment groups: a GK rat-solvent treatment group (n=9) and a GK rat-Dorzagliatin (8 mg/kg) treatment group (n=8). Age-matched Wistar rats were used as the normal control group, i.e., the Wistar rat-solvent group (n=9). The treatment began at six weeks of age. The rats were administered either the solvent or Dorzagliatin by gavage twice daily, morning and evening. Peripheral blood was collected multiple times from the animals throughout the growth cycle, and the fasting blood glucose levels of the animals were tested (the fasting blood glucose levels of the three groups of rats were tested and analyzed at weeks 6, 8, 12, 16, 20, 29, and 31).

GK rats [3] = assay: Morris water maze spatial memory test (probe test) in GK rats; conditions: 8 mg/kg by gavage twice daily, about 27 weeks of treatment (33 weeks old), 1 minute probe test
Procedure: as §5
The Morris water maze test is a commonly used behavioral method to assess the spatial memory, working memory, and spatial discrimination abilities of rodents. […]
Preparation of the experimental environment: The laboratory environment was kept quiet. […] During the test, the latent period of escape, swimming path (distance), speed, and quadrant preference of a rat were recorded using the ANY-maze system. […]
Spatial memory test (probe test): The spatial memory test was performed 24 hours after the end of the training phase. […] The time spent in the original platform quadrant and the swimming distances were recorded, and the data of each group of animals were statistically analyzed.

[4] = system: insulin receptor isoform IR-B protein; assay: Western blot of IR-B protein in hippocampus of GK rats; conditions: hippocampus of GK rats after 37 weeks of treatment (43 weeks old); FIG. 6
Procedure: (§6) GK rats were euthanized after 37 weeks of treatment, i.e., when the rats were 43 weeks old, and hippocampal tissue of the GK rats was collected for western blotting to detect the protein expression levels of the biomarkers.
(§7) Animals under anesthesia were rapidly decapitated and their brains were removed in a hypothermic environment. The hippocampal tissue was separated on ice, placed in cryovials, flash-frozen in liquid nitrogen, and then stored in a −80° C. freezer for later use.
(§8) • (1) The tissue homogenizer (TissueLyser II high-throughput tissue homogenizer, QIAGEN) was pre-cooled at −20° C. The hippocampal tissue was taken out from the −80° C. freezer. […]
(§9) Based on the protein concentration determined in step (II), an appropriate amount of protein lysis buffer was added to adjust the protein concentration of each group to a suitable level. […]
(§10) After the membrane transfer was completed, the PVDF membranes were blocked with non-fat milk at room temperature for 1 hour. […] The eluted PVDF membranes were scanned using an electrochemiluminescence (ECL) method with a contact-based non-destructive quantitative imaging instrument (E-blot) to give a western blot image. […]

[5] = system: ionotropic glutamate receptor subunit GluN2B; assay: Western blot of GluN2B in hippocampus of GK rats; conditions: hippocampus of GK rats after long-term treatment; FIG. 12
Description: as §1, §2, §3, §4

[6] = system: glucose transporter 1 (GLUT1); assay: Western blot of GLUT1 in hippocampus of GK rats; conditions: hippocampus of GK rats after long-term treatment; FIG. 8
Description: as §1
(§11) Then, the gel obtained from the electrophoresis was used for membrane transfer. Biomarkers GLUT1, GLUT3, and GAPDH were transferred to a membrane using a semi-dry transfer method. The membrane was assembled in the following order: negative electrode-filter paper-gel-PVDF membrane-filter paper-positive electrode. The membrane transfer was performed at a constant current of 0.2 A at room temperature for 65 minutes.
(§12) After the membrane transfer was completed, the PVDF membranes (GLUT1, GLUT3, GAPDH) were blocked with non-fat milk at room temperature for 1 hour.
(§13) Calculation of the relative expression level of a protein: The western blot images were quantified using an image processing software ImageJ, and the gray value of a target band was measured and used to characterize the protein expression level of the target band. The gray value of a target protein was divided by the gray value of the internal reference protein GAPDH to perform normalization, which characterized the relative expression level of the target band. Statistical analysis was performed on the normalized value of each target band.

[7] = system: insulin receptor isoform IR-A protein; assay: Western blot of IR-A protein in hippocampus of GK rats; conditions: hippocampus of GK rats after 37 weeks of treatment (43 weeks old); FIG. 5
Procedure: as §6, §7, §8, §9, §10

[8] = system: glucose transporter 3 (GLUT3); assay: Western blot of GLUT3 in hippocampus of GK rats; conditions: hippocampus of GK rats after long-term treatment; FIG. 9
Description: as §1, §11, §12, §13

In the case of `CC(C)C[C@@H](C(=O)Nc1ccn(C[C@@H](O)CO)n1)N1CC(Oc2ccccc2Cl)=CC1=O` [Dorzagliatin], the “normalized value of GluN2A band (gray value / GAPDH, mean±SEM)” value [1] is reported as 1.05±0.07, the “fasting blood glucose levels vs GK rat-solvent group” value (GK rats [2]) is reported as “significantly lower than those of the GK rat-solvent group” and the “time spent in the original platform quadrant (mean±SEM)” value (GK rats [3]; FIG. 2) is reported as 20.1 s. For the same compound, the “swimming distance in the original platform quadrant (mean±SEM)” value (GK rats [3]; FIG. 3) was 4.21 m, the “normalized value of IR-B protein band (gray value / GAPDH, mean±SEM)” value [4] was 1.64±0.06 and the “normalized value of GluN2B band (gray value / GAPDH, mean±SEM)” value [5] was 0.87±0.02. The “normalized value of GLUT1 band (gray value / GAPDH, mean±SEM)” value [6] was 1.67±0.06, the “normalized value of IR-A protein band (gray value / GAPDH, mean±SEM)” value [7] was 1.46±0.08 and the “normalized value of GLUT3 band (gray value / GAPDH, mean±SEM)” value [8] was 1.22±0.13.

Reference: patent publication US20260248766A1, “GLUCOKINASE ACTIVATOR FOR COGNITIVE DISORDERS AND NEURODEGENERATIVE DISEASES” (HUA MEDICINE (SHANGHAI) LTD., priority 2023, published 2026)
